## CCOC(=O)[C@H](Cc1ccc(N)cc1)NC(=O)c1ccccc1 [Example 6, (S)-Ethyl-2-benzoylamino-3-(4-aminophenyl)propionate]
  melting point: 120 to 122 °C
